The source of these data is US20230242496A1, “SOX11 INHIBITORS FOR TREATING MANTLE CELL LYMPHOMA” (Icahn School of Medicine At Mount Sinai, priority 2020, published 2023).

The first data set addresses T1, (His)6-SOX11-DBD protein (Homo sapiens, UniProt P35716).
T1 construct: Recombinant (His)6-SOX11-DBD protein was immobilized
T1 sequence (P35716 49-117 limits assumed): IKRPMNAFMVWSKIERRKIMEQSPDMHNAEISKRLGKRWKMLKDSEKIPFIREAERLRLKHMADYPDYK
Description: Surface Plasmon Resonance (SPR) assay. It is filed as binding. The conditions noted are these: immobilized recombinant (His)6-SOX11-DBD, 25° C., compounds 5-40 μM, mean of three experiments. The procedure: Surface Plasmon Resonance (SPR) Assay
Recombinant (His)6-SOX11-DBD protein was immobilized at a flow rate of 10 μl/min for 180 seconds to the right channel of a gold-coated SCR NiHC200M sensor chip (XanTec bioanalytics) placed in a Reichert 2SPR instrument (Reichert Technologies). The left channel, without immobilized protein, was used as a reference. […] Compounds flowed sequentially from the left to the right channel over the prepared sensor chip surface. 120 seconds association phase with each compound concentration was followed by 300 seconds dissociation phase with the assay buffer alone. The ka, kd, and KD values were determined from the sensograms for at least 3 concentrations of each compound by curve fitting the data using Reichert's TraceDrawer software. The mean KD value for each compound was calculated from three separate experiments.
The term Kd denotes the free concentration of one partner at which half of the binding sites on the other are occupied at equilibrium, for simple one-to-one binding. With `Cc1cc(C(=O)Nc2ccc(S(=O)(=O)Nc3ccccc3)cc2)nc(NC2CCC(N)CC2)n1` (centres unmarked), the Kd is 94.6 µM.
On to `CC(=O)NCCNc1nc(C)cc(C(=O)Nc2ccc(S(=O)(=O)Nc3ccccc3)cc2)n1`, for which the Kd is 89.6 µM.
Turning to `Cc1cc(Nc2cc(C(=O)Nc3ccc(S(=O)(=O)Nc4ccccc4)cc3)ccc2C)nc(N)n1`, the Kd came out at 80.7 µM.
In the case of `Cc1ccc(C(=O)Nc2ccc(S(=O)(=O)Nc3ccccc3)cc2)cc1NC(=O)CCc1c[nH]cn1`, the Kd stood at 72.1 µM.
Still for that read-out and setting: the same measure for `COc1cccc(NC(=O)Nc2cc(Nc3cccc(S(=O)(=O)N4CCCC4)c3)ncn2)c1`: 16.5 µM; for `CC1Sc2ccc(C(=O)Nc3cccc(CNc4cccc(OS(=O)(=O)F)c4)c3)cc2NC1=O` (centres unmarked): 11.2 µM; for `CC1Sc2ccc(C(=O)Nc3cccc(OCc4ccc(OS(=O)(=O)F)cc4)c3)cc2NC1=O` (centres unmarked): 19.1 µM.
On to `CC1Sc2ccc(C(=O)Nc3cccc(OCc4cccc(OS(=O)(=O)F)c4)c3)cc2NC1=O` (centres unmarked), for which the Kd was 16.9 µM.
Regarding `NCCc1nc2ccc(C(=O)Nc3ccc(S(=O)(=O)Nc4ccccc4)cc3)cc2[nH]1`, the Kd was determined as 79.3 µM.
Consider `Nc1cccc(Nc2ccnc(Nc3cccc(S(=O)(=O)N4CCCC4)c3)n2)c1`, for which the Kd came to 118 µM.
Consider `Cc1ccc(C(=O)Nc2ccc(S(=O)(=O)Nc3ccccc3)cc2)cc1NC(=O)Cc1cc(=O)[nH]c(=O)[nH]1`, for which the Kd came to 61.9 µM.
For the compound `Cc1cc(C(=O)Nc2ccc(S(=O)(=O)Nc3ccccc3)cc2)nc(NCCN)n1`, the Kd turned out to be 22.1 µM.
In the case of `CC(=O)NCc1cccc(Nc2ccnc(Nc3cccc(S(=O)(=O)N4CCCC4)c3)n2)c1`, the Kd is 38 µM.
In the case of `CC(=O)NCc1cccc(Nc2nc(Nc3cccc(S(=O)(=O)N4CCCC4)c3)ncc2C)c1`, the Kd turned out to be 163 µM.
On the same count and under the same terms, then `Cc1cc(C(=O)Nc2ccc(OCc3ccccc3)cc2)nc(NCCN)n1`, with 122 µM; and `CC1Sc2ccc(C(=O)Nc3cccc(S(=O)(=O)F)c3)cc2NC1=O` (centres unmarked), with 35.5 µM; and `CC1Sc2ccc(C(=O)Nc3ccc(OCc4cccc(S(=O)(=O)F)c4)cc3)cc2NC1=O` (centres unmarked), with 7.17 µM.
For `O=C(Cc1ccccc1[N+](=O)[O-])Nc1cccc(C(=O)Nc2ccc(CN3CCCC3)cc2)c1`, the Kd was determined as 247 µM.
Take `Nc1ccccc1CC(=O)Nc1cccc(C(=O)Nc2ccc(CN3CCCC3)cc2)c1`: the Kd came out at 15.4 µM.
The same measure, in the same setting: then `Cc1cnc(Nc2cccc(S(=O)(=O)N3CCCC3)c2)nc1Nc1cccc(N)c1`, with 105 µM; and `CN(c1ccccc1)S(=O)(=O)c1ccc(NC(=O)c2ccc3c(c2)CCCS3)cc1`, with 21.7 µM.
Turning to `CC(=O)N1CCN(S(=O)(=O)c2cccc(NC(=O)c3ccc4c(c3)CCCS4)c2)CC1`, the Kd was 15.4 µM.
Same read-out and setting: then `O=C(Nc1cccc(CN2CCCCC2)c1)c1ccc2c(c1)CCCS2`, with 24 µM; and `CC(=O)N1CCN(S(=O)(=O)c2ccc(NC(=O)c3ccc4c(c3)CCCS4)cc2)CC1`, with 24.1 µM.
`CN(Cc1cccc(NC(=O)c2ccc3c(c2)CCCS3)c1)c1ccccc1`: the Kd came out at 37.5 µM.
On the same count and under the same terms, the same measure for `O=C(Nc1ccc(S(=O)(=O)N2CCCCC2)cc1)c1ccc2c(c1)N(Cc1ccccc1)C(=O)CS2`: 15.7 µM; for `O=C(Nc1cccc(OCc2ccccc2)c1)c1ccc2oc(=O)[nH]c2c1`: 12.4 µM; for `CCCCN1C(=O)CSc2ccc(C(=O)Nc3ccc(S(=O)(=O)N4CCCCC4)cc3)cc21`: 25.2 µM.
Turning to `O=C(Nc1ccc(S(=O)(=O)Nc2ccccc2)cc1)c1ccc2nncn2c1`, the Kd is 367 µM.
As for `c1ccc(OCc2ccc(CNc3ccc4cncnc4c3)cc2)cc1`, the Kd stood at 12 µM.
In the case of `CN1C(=O)COc2ccc(C(=O)Nc3ccc(S(=O)(=O)N4CCCCCC4)cc3)cc21`, the Kd is 4.94 µM.
The same measure, in the same setting: the same measure for `CN(Cc1cccc(NC(=O)c2ccc3snnc3c2)c1)c1ccccc1`: 38.8 µM; for `CN1C(=O)CSc2ccc(C(=O)Nc3ccc(CN4CCCCC4)cc3)cc21`: 129 µM; for `CN1C(=O)CSc2ccc(C(=O)Nc3ccc(S(C)(=O)=O)cc3)cc21`: 82.1 µM.
In the case of `CN(c1cccc(Cl)c1)S(=O)(=O)c1ccc(NC(=O)c2ccc3c(c2)CCCS3)cc1`, the Kd is 14.2 µM.
As for `CN(c1ccccc1)S(=O)(=O)c1ccc(NC(=O)c2ccc(/C=C/C(=O)O)cc2)cc1`, the Kd came out at 106 µM.
As for `CN(c1ccccc1)S(=O)(=O)c1ccc(NC(=O)c2ccc(SCC(=O)O)cc2)cc1`, the Kd came to 11 µM.
As for `O=C(Nc1cccc(CNc2ccccc2)c1)c1ccc2oc(=O)[nH]c2c1`, the equilibrium dissociation constant (Kd) was determined as 18.2 µM.
On to `CN(Cc1cccc(NC(=O)c2ccc3oc(=O)[nH]c3c2)c1)c1ccccc1`, for which the dissociation constant Kd is 13.6 µM.
On the same count and under the same terms, then `CCN1C(=O)CSc2ccc(C(=O)Nc3ccc(S(=O)(=O)N4CCCCC4)cc3)cc21`, with 7.52 µM; and `CC(C)N1C(=O)CSc2ccc(C(=O)Nc3ccc(S(=O)(=O)N4CCCCC4)cc3)cc21`, with 6.37 µM; and `CCN(c1ccccc1)S(=O)(=O)c1ccc(NC(=O)c2ccc3c(c2)CCCS3)cc1`, with 130 µM.
Consider `CN(c1ccccc1)S(=O)(=O)c1ccc(NC(=O)c2ccc3c(c2)CCCS3)cc1Cl`, for which the Kd was 10.2 µM.
In the case of `CN(c1ccccc1)S(=O)(=O)c1ccc(NC(=O)c2ccc3c(c2)CCCS3)cc1C(F)(F)F`, the Kd was found to be 5.62 µM.
As to `CN(Cc1ccccc1)c1ccc(CNc2ccc3cccnc3c2)cc1`, the Kd came out at 9.27 µM.
Regarding `CN(Cc1ccccc1)c1ccc(CNc2ccc3cncnc3c2)cc1`, the Kd is 20.7 µM.
The same measure, in the same setting: then `c1ncc2ccc(NCc3ccc(OCC4CCOCC4)cc3)cc2n1`, with 24.4 µM.
As to `O=C1COc2ccc(C(=O)Nc3ccc(CNc4ccccc4)cc3)cc2N1`, the Kd was 5.28 µM.
Consider `O=C(Nc1ccc(CNc2ccccc2)cc1)c1ccc2nncn2c1`, for which the Kd was 46.1 µM.
Turning to `c1ncc2ccc(NCc3ccc(OCC4CCCCC4)cc3)cc2n1`, the Kd came out at 8.28 µM.
As to `Cc1ccccc1COc1ccc(CNc2ccc3cncnc3c2)cc1`, the Kd came to 11.1 µM.
As to `c1ccc(CNc2ccc(CNc3ccc4cncnc4c3)cc2)cc1`, the Kd stood at 30.6 µM.
As for `Cc1cccc(COc2ccc(CNc3ccc4cncnc4c3)cc2)c1`, the Kd came out at 7.63 µM.
For `Clc1cccc(COc2ccc(CNc3ccc4cncnc4c3)cc2)c1`, the Kd was 3.28 µM.
Consider `Clc1ccccc1COc1ccc(CNc2ccc3cncnc3c2)cc1`, for which the Kd was determined as 7.88 µM.
`Cc1cc(OCc2ccccc2)ccc1CNc1ccc2cncnc2c1`: the Kd is 9.24 µM.
On the same count and under the same terms, the same measure for `Clc1cc(CNc2ccc3cncnc3c2)ccc1OCc1ccccc1`: 4.01 µM; for `FC(F)(F)c1cc(CNc2ccc3cncnc3c2)ccc1OCc1ccccc1`: 4.89 µM.
`O=C1CSc2ccc(C(=O)Nc3ccc(CNc4ccccc4)cc3)cc2N1`: the Kd was 1.74 µM.
`CC(=O)N1CCN(S(=O)(=O)c2ccc(NC(=O)c3ccc4snnc4c3)cc2)CC1`: the Kd turned out to be 16.9 µM.

The next data set concerns Jeko-1 (SOX11+). Put plainly: Cell viability assay (CellTiter-Blue resazurin reduction). It is filed as cell-based. The conditions noted are these: Homo sapiens, JeKo-1, 72 h, JeKo-1 cells, 0-40 μM. On the procedure:
Cell viability was determined by a fluorometric resazurin reduction method (CellTiter-Blue; Promega, Madison, Wis.) following the manufacturer's instructions. […] Cells were incubated for 72 hours. After incubation, 20 μl CellTiter-Blue Cell was added to each well and incubated for another 2 hours. […] The number of viable cells in each treated well was calculated, based on the linear least squares regression of the standard curve (OD vs. cell concentration). The viability of cells treated with compounds was normalized to the viability of cells treated with 0.2% Dimethyl sulfoxide (DMSO). Cell counts were confirmed with Trypan Blue Exclusion Assay on the Countess automated cell counter (Invitrogen) according to the manufacturer's specifications. The average and mean standard deviation were calculated from three separate experiments. IC50 values were calculated using the GraphPad Prism (version 4.00) based on a sigmoidal dose-response equation.
(In general: Alamar Blue is a resazurin reagent that responds to reducing activity.)
The IC50 is the point on the concentration scale where inhibition reaches its midpoint. In turn, `O=C(Nc1ccc(S(=O)(=O)Nc2ccccc2)cc1)c1ccc2nn[nH]c2c1` had an IC50 of 12 µM.
Regarding `CC1Sc2ccc(C(=O)Nc3ccc(S(=O)(=O)Nc4ccccc4F)cc3)cc2NC1=O` (centres unmarked), the IC50 is 15 µM.
On the same count and under the same terms, then `CC1Sc2ccc(C(=O)Nc3ccc(S(=O)(=O)Nc4ccccc4)cc3C(F)(F)F)cc2NC1=O` (centres unmarked), with 5 µM.
`Cc1cc(S(=O)(=O)Nc2ccccc2)ccc1NC(=O)c1ccc2c(c1)NC(=O)C(C)S2` (centres unmarked) gave an IC50 of 20 µM.
The same measure, in the same setting: the same measure for `CC1Sc2ccc(C(=O)Nc3cccc(S(=O)(=O)Nc4cccc(C(F)(F)F)c4)c3)cc2NC1=O` (centres unmarked): 10 µM; for `C[C@H]1Sc2ccc(C(=O)Nc3ccc(S(=O)(=O)Nc4ccccc4)cc3)cc2NC1=O`: 12.5 µM.
For the compound `CC1Sc2ccc(C(=O)Nc3ccc(S(=O)(=O)Nc4ccccc4)cc3)cc2NC1=O` (centres unmarked) [drawing 599], the IC50 was 12.5 µM.

Still in this data set, the particulars now being: Homo sapiens, JeKo-1, 72 h, JeKo-1 cells, 20 μM compound, normalized to 0.2% DMSO.
As usually defined, the viability is a read-out of living cells in per cent, often relative to untreated cells. Regarding `O=C(Nc1ccc(S(=O)(=O)Nc2ccccc2)cc1)c1ccc2nn[nH]c2c1`, the viability at 20 µM was found to be 5.75%.
As to `CC1Sc2ccc(C(=O)Nc3ccc(S(=O)(=O)Nc4ccccc4F)cc3)cc2NC1=O` (centres unmarked), the viability at 20 µM came to 21.2%.
As to `CC1Sc2ccc(C(=O)Nc3ccc(S(=O)(=O)Nc4ccccc4)cc3C(F)(F)F)cc2NC1=O` (centres unmarked), the viability at 20 µM came to 1.38%.
On the same count and under the same terms, then `Cc1cc(S(=O)(=O)Nc2ccccc2)ccc1NC(=O)c1ccc2c(c1)NC(=O)C(C)S2` (centres unmarked), with 51.1%; and `CC1Sc2ccc(C(=O)Nc3cccc(S(=O)(=O)Nc4cccc(C(F)(F)F)c4)c3)cc2NC1=O` (centres unmarked), with 16.8%; and `CC1Sc2ccc(C(=O)Nc3ccc(OCc4ccccc4C(F)(F)F)cc3)cc2NC1=O` (centres unmarked), with 106%.
As for `CC1Sc2ccc(C(=O)Nc3ccc(OCc4ccccc4)cc3)cc2NC1=O` (centres unmarked), the viability at 20 µM is 104%.
As to `CC1Sc2ccc(C(=O)Nc3cccc(OCc4ccccc4C(F)(F)F)c3)cc2NC1=O` (centres unmarked), the viability at 20 µM stood at 87.1%.

Staying with this data set, now noted: JeKo-1 cells, 20 μM compound, 72 hours, normalized to 0.2% DMSO; 20 µM.
Regarding `O=C1CSc2ccc(C(=O)Nc3ccc(S(=O)(=O)Nc4ccccc4)cc3)cc2N1` [drawing 503], the “Jeko-1 Viability at 20 μM (%)” value was found to be 2.73%.
For the compound `O=C1CSc2ccc(C(=O)Nc3ccc(S(=O)(=O)Nc4ccccc4)cc3)cc2N1` [drawing 513], the “Jeko-1 Viability at 20 μM (%)” value worked out at 79.21%.
Still for that read-out and setting: then `CC1Sc2ccc(C(=O)Nc3ccc(S(=O)(=O)Nc4ccccc4)cc3)cc2NC1=O` (centres unmarked) [drawing 599], with 6.36%.

Staying with this data set, now noted: JeKo-1 cells, 72 hours, 0-40 μM.
`O=C1CSc2ccc(C(=O)Nc3ccc(S(=O)(=O)Nc4ccccc4)cc3)cc2N1` [drawing 503] yielded an IC50 of 7.5 µM.
Consider `O=C1CSc2ccc(C(=O)Nc3ccc(S(=O)(=O)Nc4ccccc4)cc3)cc2N1` [drawing 513], for which the IC50 is above 20 µM.
